Reference: patent US8715718B2, “Extracellular matrix production from nanoscale substrate” (Rutgers, The State University of New Jersey, priority 2006, dated 2014)

Key:
[1] = test system: Human foreskin fibroblasts, HFF; assay: Fibronectin matrix assembly by HFF, immunofluorescence and image analysis; assay type: cell-based
Description: (§1) Labtek chamber slides (Nalge Nunc International, Rochester, N.Y.) were coated overnight at 4° C. with FNf-ANPs or FNf as described above to attain equivalent display with FNf. […] Fibroblasts were seeded at densities and incubated for times described in each figure legend. […] Samples were then incubated with primary antibodies in blocking buffer (3% BSA) for 1 hour, washed, and further incubated with the appropriate secondary antibodies for 1 hour. Where indicated, cells were also incubated with TexasRed X- or fluoroscein-conjugated phalloidin to visualize F-actin. Cells were examined using a Leica SP/2 Confocal Laser Scanning Microscope.

[2] = test system: Human foreskin fibroblasts, HFF; assay: Cell adhesion assay (hexosaminidase); assay type: cell-based
Description: To quantify cell attachment to FNf-ANPs, 96-well non-tissue culture dishes were coated overnight at 4° C. with FNf-ANPs or FNf as described above. Wells were washed with PBS and blocked with 1% bovine serum albumin. After washing with PBS, HFF were plated at 2.5×10^4 cells/well and incubated for 60 minutes at 37° C. Medium and unbound cells were removed by inversion of the plate and two washes with PBS. Quantification of the number of adherent cells was performed using the hexosaminidase assay. Briefly, substrate composed of a 1:1 mixture of 0.5% Triton-X 100 and 7.5 mM β-nitrophenyl N-acetyl β-D glucosaminide in 0.1 M citrate buffer, pH 5.0, was added to each well and incubated for 90 minutes at 37° C. The reaction was terminated with 50 mM glycine/5 mM EDTA, pH 10.4 and the absorbance read at 405 nm on a multiwell plate reader.
(§2) To analyze cellular morphology, shape factors were quantified for all conditions.

fibroblasts [3] = assay: Cell morphology on ligand-ANC (FITC-phalloidin); assay type: cell-based, human
Description: Cell morphology was examined as a function of differential ligand presentation and nanocarrier size at two time points. Passively adsorbed substrates were prepared as described above. Fibroblasts that were serum deprived at least 12 hours before hand were seeded in serum free media for 1 or 5 hours at 37° C. Substrates were washed after the designated incubation time, and fixed with 3.7% formaldehyde for 15 minutes at room temperature. Substrates were washed again and permeabilized with Triton-X 100 for 15 minutes at room temperature. Substrates were washed, blocked with 1% BSA for 15 minutes at room temperature, washed again, and stained with FITC phalloidin (Molecular Probes) for 20 minutes. Substrates were washed and stored at 4° C. until image acquisition. Images were acquired with a Leica TCS SP/2 at 63×.
The effects of ligand presentation on cytoskeletal morphology were examined by labeling F-actin at two different time points (FIG. 7b). In that experiment, cell morphology was examined of fibroblasts cultured at the optimal ligand density for cell attachment (2.2 μg/cm^2) at 1 hour (left column) and 5 hours (right column) using FITC-phalloidin.

[4] = test system: Human foreskin fibroblasts, HFF; assay: Cell morphology by F-actin staining and shape factor; assay type: cell-based
Description: as §1
To characterize the effect of nanoparticle display of FNf on early cellular responses, adhesion and morphology were examined. […] Next, we extended the culture time of human foreskin fibroblasts (“HFF”) on FNf-ANPs or equivalent FNf, and evaluated cellular morphology. HFF (2.3×10^4 cells/cm^2) were cultured for 5 hours on surfaces prepared as described in Materials and Methods, then stained for F-actin with Texas Red X-conjugated phalloidin. Bar, 40 μm.
as §2

fibroblasts [5] = assay: Cell attachment to ligand-ANC (hexosaminidase assay); assay type: cell-based, human; conditions: 1 hour, equal ligand density, differential presentation
Description: To quantify cell attachment to ligand-ANC, 96-well non-tissue culture dishes were passively coated overnight at 4° C. with varying ligand density and presentation as described above. Wells were washed with PBS and blocked with 1% bovine serum albumin. After washing, fibroblasts were seeded at 25,000 cells/well and incubated for 1 hour at 37° C. Substrates were washed with PBS to remove unbound cells. Adhered cells were quantified using the hexosaminidase assay. Briefly, a substrate mixture composed of 1 part […] and 1 part 7.5 mM [3-nitrophenyl N-acetyl [3-D glucosaminide (Sigma) in 0.1 M citrate buffer (pH 5.0), was added to each well and incubated for 90 minutes at 37° C. The reaction was terminated with a mixture of 50 mM glycine (Sigma) and 5 mM EDTA (Sigma) (pH 10.4). The absorbance was read at 405 nm on a multiwell plate reader.
Cell attachment is one of the earliest cell anchorage responses to substrates. To examine if the nanoscale presentation of ligand could alter early cell binding and attachment events, fibroblasts were seeded on ligand-adsorbed substrates of three different ligand densities with different presentations (FIG. 7a). […] Cells were incubated for 1 hour, unbound cells were washed, and the number of adherent cells was quantified using the hexosaminidase assay. […]

[6] = test system: Human foreskin fibroblasts; assay: Imaging of fibronectin matrix assembly as a function of carrier size and ligand density; assay type: cell-based; conditions: serum-free, 24 hours
Description: Substrates with equal levels of ligand but differential presentation were adsorbed in 8-well Labtek chamber slides overnight at 4° C. Substrates were then washed generously with PBS and blocked with BSA for 1 hour at 37° C. Fibroblasts were serum-starved at least 12 hours prior to trypsinization and re-plated at a density of 35,000 cells per well in serum free media. Cells were then cultured for 24 hours at 37° C. After 24 hour incubation, media was removed and substrates were washed with DPBS with calcium and magnesium. Cells were fixed with 1% formaldehyde for 9 minutes and washed with DPBS with calcium and magnesium. Cells were permeabilized with Triton-X 100 for 15 minutes and washed with DPBS with calcium and magnesium and blocked with 1% BSA for 1 hour at 37° C. Substrates were washed and primary antibody IST-4 (Sigma) for fibronectin that binds to the 5th type III repeat of human plasma fibronectin was incubated at a 1:100 dilution in PBS overnight at 4° C. Substrates were washed and incubated with FITC-conjugated donkey anti-mouse IgG (Jackson Immunolabs, West Grove, Pa.) at a 1:200 dilution for 30 minutes at room temperature, and were then washed and incubated with Texas-red phalloidin (Molecular Probes, Eugene, Oreg.) for 20 minutes at room temperature. Substrates were washed and stored at 4° C. until image acquisition. […]

## C[C@@H](N)[C@H]1CC[C@H](C(=O)Nc2ccncc2)CC1 [Y27632]
[1]; 3 μM Y27632 added 2 hours after seeding on FNf-ANP 1.70 μg/cm^2, overnight
  effect on FNf-ANP induced matrix assembly by HFF: abrogated
[1]; HFF on FNf-ANP treated with Y27632, image analysis
  fibronectin matrix fibrils in the extracellular space compared to control conditions: significantly decreased levels

## FNf: recombinant GST fusion of fibronectin fragment comprising repeats III9 and III10, adsorbed alone as comparator
[2]; 60 minutes, lowest amount of ligand tested
  cell attachment: no detectable attachment
[2]; adsorbed FNf up to the highest concentration
  cellular adhesion over the FNf concentration range: no significant increase in cellular adhesion
Fibroblasts [3]; 2.2 μg/cm^2, 1 hour
  cell spreading / morphology at 1 hour: some filopodial projections
Fibroblasts [3]; 2.2 μg/cm^2, 5 hours
  cell morphology at 5 hours: well-spread with well defined stress fibers
[4]; 45 minutes post seeding
  cell spreading (morphology): minimally spread
[4]; 5 hours of culture, F-actin staining
  cell morphology: flattened, well-spread appearance
[4]; 5 hours, about 25 cells per condition, all FNf densities
  shape factor, (perimeter)^2/(4π(area)): around 4
[1]; HFF on bare coverglass, ligand added to media, overnight
  deposition of fibronectin into the ECM when presented via the culture medium: not sufficient
Fibroblasts [5]
  cell attachment at a specific ligand density: significant attachment, but to a lesser degree

## whole length mouse fibronectin: whole length mouse fibronectin (Innovative Research) adsorbed as control substrate
[6]
  fibronectin fibrils on control substrates: Fibrils were not seen
Fibroblasts [3]; control substrates
  cell spreading / morphology on control substrates: polarized morphology consistent with migrating cells
